Assays:
[1] = target: Matrix protein 2 (Influenza A virus) (UniProt P06821); test: Binding affinity to C-terminal amidated influenza A virus A/Udorn/72 (H3N2) M2 transmembrane domain (22 to 46 residues) in DPC micelles at pH 8 assessed as change in entropy by ITC analysis
[2] = target: Matrix protein 2 (Influenza A virus) (UniProt P06821); test: Inhibition of full length influenza A virus A/Udorn/72 (H3N2) M2 expressed in Xenopus laevis oocytes assessed as inhibition of channel current at 100 uM measured after 2 mins by two-electrode voltage clamp assay relative to control; type: cell-based; settings: Oocyte
Influenza A virus = test: Antiviral activity against amantadine-sensitive influenza A virus A/Udorn/72 (H3N2) infected in MDCK cells assessed as inhibition of virus-induced cytopathic effect incubated for 48 hrs by crystal violet/neutral red staining based assay; type: functional, organism-based
[3] = target: Matrix protein 2 (Influenza A virus) (UniProt P06821); test: Inhibition of full length influenza A virus A/Udorn/72 (H3N2) M2 expressed in Xenopus laevis oocytes assessed as inhibition of channel current at 100 uM measured after 5 mins by two-electrode voltage clamp assay relative to control; type: cell-based; settings: Oocyte
[4] = target: Matrix protein 2 (Influenza A virus) (UniProt P06821); settings: A/Udorn/72 (H3N2)
Description: Binding affinity to C-terminal amidated influenza A virus A/Udorn/72 (H3N2) M2 transmembrane domain (22 to 46 residues) in DPC micelles at pH 8 assessed as change in enthalpy by ITC analysis

Matrix protein 2 = Matrix protein 2 (Influenza A virus, UniProt P06821)
Matrix protein 2, sequence (P06821 whole entry): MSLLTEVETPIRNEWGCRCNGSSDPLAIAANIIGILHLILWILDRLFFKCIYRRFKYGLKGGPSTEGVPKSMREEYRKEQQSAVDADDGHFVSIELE
Description: Binding affinity to C-terminal amidated influenza A virus A/Udorn/72 (H3N2) M2 transmembrane domain (22 to 46 residues) in DPC micelles at pH 8 assessed as dissociation constant by ITC analysis

[5] = target: Matrix protein 2 (Influenza A virus) (UniProt P06821); settings: A/Udorn/72 (H3N2); remark: listed apart in the source
Description: Binding affinity to C-terminal amidated influenza A virus A/Udorn/72 (H3N2) M2 transmembrane domain (22 to 46 residues) in DPC micelles at pH 8 assessed as gibbs free energy change by ITC analysis

Matrix protein 2 (Influenza A virus), sequence (P06821 whole entry, the tested form may be a part): as the sequence (P06821 whole entry) above

Row | SMILES | -TdeltaS [1] [kcal/mol] | inhibition [2] [%] | IC50 (Influenza A virus) [nM] | inhibition [3] [%] | deltaH [4] [kcal/mol] | Kd (Matrix protein 2) [nM] | deltaG [5] [kcal/mol]
1 | CC(N)C12CC3CC(CC(C3)C1)C2 (racemic) [RIMANTADINE] | -1.04 | 96 | 50 | 96 | -7.6 |  | 
2 | CC(C)(N)C12CC3CC(CC(C3)C1)C2 | -5.12 | 90 | 40 | 96 | -4.19 | 130 | -9.3
3 | C[C@H](N)C12CC3CC(CC(C3)C1)C2 | -1.15 | 95 | 60 | 96 | -7.73 |  | 
4 | C[C@@H](N)C12CC3CC(CC(C3)C1)C2 | -1.42 | 93 | 50 | 95 | -7.54 |  | -8.97
5 | NC12CC3CC(CC(C3)C1)C2 [AMANTADINE] | -1.11 |  | 330 | 95 | -6.66 |  | -7.77

Reference: ChEMBL document CHEMBL5260804 (ACS Med Chem Lett, 2017)
